Laboratory results as given in patent US10512627B2, “Anti-tumor compound and the medical use thereof” (Tianjin Medical University Cancer Institute and Hospital, priority 2014, dated 2019).

Experiments:
[1] = Acute toxicity assay in mice, oral administration (Example 10); conditions: both sexes, mouse, in vivo, 5000 mg/kg; oral administration, Kunming mice
Description: (§1) The medium lethal dose of (S)2-(4′-methyl-3′-nitrobenzoylamino)-3-phenylpropionic acid via oral administration was tested by acute toxicity assay in mice.
(§2) 1) Mice grouping: Kunming mice of clean grade, 10 weeks old, 30˜40 g body weight, 5 mice for each group, and all of the mice were males or females.
(§3) 2) 3.2 g (S)2-(4′-methyl-3′-nitrobenzoylamino)-3-phenylpropionic acid was added to 8 mL solution of 3% sodium carboxymethylcellulose solution, and the mixture was homogenated for 5 min at 30000 rpm with a homogenizer. Each mouse undergone administration of intragastric infusion with 0.5 ml at a dosage of 5000 mg/kg. […] If the death number was […], the LD50 was regarded as more than 5000 mg/kg; if the death number equals to or was more than 3, the main experiments will be performed. The experiment was repeated for 3 times and the result was recorded as follows: […]

Kunming mice = assay: as above; conditions: Kunming, mouse, in vivo, 14 days
Description: as §1, §2, §3

MDA-MB-231 cells = assay: MTT assay, proliferation of MDA-MB-231 (Example 11); type: cell-based; conditions: Homo sapiens, 48 h
Description: The half inhibitory concentration of (S)2-(4′-methyl-3′-nitrobenzoylamino)-3-phenylpropionic acid for MDA-MB-231 cells was tested by MTT assay.
2) 5 mg/mL MTT solution was prepared with sterilized PBS, filtered with 0.22 um film, and then diluted with medium to 1 mg/mL. The medium in the 96-well plate was discarded, and 100 μL 1 mg/mL MTT working solution was add, followed by continuous culturing for 5 h.
3) MTT working solution was discarded, and 150 μL DMSO was added to each well (note: to away from light), and then the plate was shaken on the horizontal shaker at 170 rpm for 10 min, followed by detecting the absorbance at 490 nm with microplate reader.

[2] = test system: human lung adenocarcinoma cell A549; assay: Scratch test, migration of A549 (Example 4); type: cell-based; conditions: 4 and 100 μmol/L, 0-36 h
Description: The inhibiting ability of (S)2-(4′-methyl-3′-nitrobenzoylamino)-3-phenylpropionic acid for the migration of human lung adenocarcinoma cell A549 was tested by scratch test.
A549 cells in logarithmic growth phase were plated in the 6-well plate with the density of 5×10^5/3 mL, and after 12 h, the drug was added, with 100 μL per well. The final concentrations of (S)2-(4′-methyl-3′-nitrobenzoylamino)-3-phenylpropionic acid (TCI04) were 4 and 100 μmol/L respectively. The negative control was 100 μL sterilized water with 2% DMSO and the positive control was 4, 100 μmol/L 4-methyl-3-nitrobenzoic acid (TCI01). After 36 h, the medium was removed, and after washing 3 times with PBS, 3 ml culture medium without fetal bovine serum and 100 μL drug (concentration was as above) per well were added. 6 h later, 200 μL tips were used to scratch, and after washing 4 times with PBS, 3 ml medium without fetal bovine serum per well was added. The distance of cell migration was recorded every 3 h under the inverted microscope, and photos were taken at 0 h and 36 h.

Lewis lung cancer cells = assay: Lewis lung cancer metastasis model in mice (Example 8); type: in vivo, C57BL/6 mouse; conditions: 50, 25, 5 mg/kg intragastric, twice a day, 21 days; P<0.01
Description: 5) A lung cancer model of mouse is established by subcutaneous inoculation of Lewis lung cancer cells in C57BL/6 mouse, because of the characteristic of Lewis lung cancer cell of specific metastasis toward the lung, and the ability of a drug for inhibiting the metastasis of the tumor cells may be determined by counting the number of the metastatic tumors on lung.
The ability of (S)2-(4′-methyl-3′-nitrobenzoylamino)-3-phenylpropionic acid for inhibiting tumor metastasis in vivo was tested by Lewis lung cancer metastasis model in mice.
1) Mice grouping, C57BL/6 of SPF grade, 5 weeks old, 18˜22 g, 8 mice for each group. half male and half female;
2) The mother liquid of (S)2-(4′-methyl-3′-nitrobenzoylamino)-3-phenylpropionic acid for dosage form for oral administration was diluted with 1.5% CMC-Na solution to 5 mg/mL, 2.5 mg/mL, 0.5 mg/mL. The dosage for administration in mice was as follows, high dosage group of 50 mg/kg; Medium dosage group of 25 mg/kg; low dosage group of 5 mg/kg. The negative control was 1.5% CMC-Na solution; The positive control was 10 mg/mL of dosage form of 4-methyl-3-nitrobenzoic acid for oral administration, with dosage for administration of 100 mg/kg; […]
5) After the completion of the experiment, the mice were sacrificed and the lungs were made into paraffin tissue sections, then stained by HE and the number of tumors were counted under microscope;

[3] = Mice acute toxicity assay, intravenous administration (Example 9); conditions: both sexes, Kunming, mouse, in vivo, Bliss algorithm
Description: The median lethal dose of (S)2-(4′-methyl-3′-nitrobenzoylamino)-3-phenylpropionic acid via intravenous administration was tested by mice acute toxicity assay.
1) Mice grouping, Kunming mice of clean grade, 10 weeks old, 30˜40 g body weight, 10 mice for each group, half male and half female.
2) 10 groups in total, concentration distance between groups was 0.88. Sterilized water was added to the mother liquid II for dosage form administrated by intravenous injection to formulate into the required concentration and 0.2 ml was intravenously injected for each mouse, following 14 days observation. The dosage of administration for each group and the death numbers were recorded as follows: […]

## Cc1ccc(C(=O)N[C@@H](Cc2ccccc2)C(=O)O)cc1[N+](=O)[O-] [(S)2-(4′-methyl-3′-nitrobenzoylamino)-3-phenylpropionic acid]
[1]
  LD50 at 14 days: > 5000 mg/kg
Kunming mice; female
  Death number, Female mice, The first test: 2
  Death number, Female mice, The second test: 2
  Death number, Female mice, The third test: 1
Kunming mice; male
  Death number, Male mice, The first test: 2
  Death number, Male mice, The second test: 1
  Death number, Male mice, The third test: 1
MDA-MB-231 cells
  IC50: 2450 µM
[2]
  inhibition of migration ability (coalescence speed of cell scratch vs negative control): significantly inhibited
Lewis lung cancer cells
  number of the tumors on the lungs compared with the negative control: very significant difference
[3]; read-out: LD50
  LD50 at 14 days: 269 mg/kg
[3]; read-out: LD50 95% confidence limits
  LD50 at 14 days: 249 to 291 mg/kg
